We go through one compound from US20210220489A1, “AMYGDALAR NEURAL ENSEMBLE THAT ENCODES THE UNPL[…] PAIN” (The Board of Trustees of the Leland Stanford Junior …, priority 2020, published 2021).

In experiment [1] the test system is control neuropathic mice. Put plainly: Pain behaviors in control neuropathic mice not expressing hM4-mCherry in the BLA. Type of experiment: in vivo. The conditions noted are these: absence of hM4 expression, CNO 10 mg/kg, morphine as positive control. The source says:
To induce a chronic pain state, we used a modified version of the Spared Nerve Injury (SNI) model of neuropathic pain, as previously described (70). This model entails surgical section of two of the sciatic nerve branches (common peroneal and tibial branches) while sparing the third (sural branch). […] To perform this peripheral nerve injury procedure, anesthesia was induced and maintained throughout surgery with isoflurane (4% induction, 1.5% maintenance in oxygen). The left hind leg was shaved and wiped clean with alcohol and betadine. We made a 1-cm incision in the skin of the mid-dorsal thigh, approximately where the sciatic nerve trifurcates. The biceps femoris and semimembranosus muscles were gently separated from one another with blunt scissors, thereby creating a <1-cm opening between the muscle groups to expose the common peroneal, tibial, and sural branches of the sciatic nerve. Next, −2 mm of both the common peroneal and tibial nerves were transected and removed, without suturing and with care not to distend the sural nerve. The leg muscles are left uncultured and the skin was closed with tissue adhesive (3M Vetbond), followed by a Betadine application. During recovery from surgery, mice were placed under a heat lamp until awake and achieved normal balanced movement. Mice were then returned to their home cage and closely monitored over the following three days for well-being.
To evaluate mechanical reflexive sensitivity, we used a logarithmically increasing set of 8 von Frey filaments (Stoelting), ranging in gram force from 0.07- to 6.0-g (93). These filaments were applied perpendicular to the plantar hindpaw with sufficient force to cause a slight bending of the filament. […] Using the Up-Down statistical method, the 50% withdrawal mechanical threshold scores were calculated for each mouse and then averaged across the experimental groups. The response frequency was calculated as the number of positive responses out of 10 stimulations, delivered at 30-s intervals.
(§1) To evaluate affective-motivational responses evoked by thermal stimulation (81), we applied either a single, unilateral 50-μL drop of water (5, 30, or 55° C.) or acetone (evaporative cooling) to the left hindpaw, and the duration of attending behavior was collected for up to 60 s after the stimulation. […] The track was subdivided into 25 temperature zones (4.8-cm D per zone), and we assessed the temperature at the center of each zone by a K-probe thermocouple. […] A video camera placed above the track recorded the position of the mouse within the temperature zones, and videos were later analyzed using a video-tracking software (Etho-vision, Noldus) for duration of zone occupancy, zone visits, distance, velocity, and acceleration.

Experiment [2] has as its system BLA neurons. Put plainly: Clozapine-N-oxide control experiments with BLA Ca2+ imaging (no hM4 expression). Type of experiment: in vivo, mice. The conditions noted are these: CNO 10 mg/kg. How it is done:
To check for possible alterations of neural activity in the presence of CNO alone (i.e., no hM4 expression), we conducted a shortened version of the main protocol (FIGS. 15D-15G). We injected mice with CNO (10 mg/kg), then placed them back in their home cage. After approximately 25 min, we mounted the miniature microscope on the mouse's head and placed them within the test chamber. They habituated for 10 min followed by adlibitum access to 10% sucrose solution delivered in the same manner as previously described. Mice then received a battery of stimuli: light touch (0.07-g von Frey filament), noxious pin (25G needle), or aloud noise (˜85 dB, same as previously described). We collected all subsequent data, processed Ca2+ imaging movies, and performed analysis similar to the main protocol used in FIG. 7.

Experiment [3] has as its system ChR2-eYFP+ nociceptor mice. Put plainly: Optical real-time place escape avoidance task. Type of experiment: in vivo. The following applies: CNO 10 mg/kg. An excerpt:
To evaluate active avoidance and escape behaviors to optogenetically driven nociception, mice expressing ChR2 in peripheral primary afferent nociceptors freely explored a custom-built two-choice chamber with LED-lit floor panels. A 32×32 LED array (8×8 cm) illuminated half the array in blue light, and the other half in red light (˜0.3 mW/mm^2). A thin glass surface (0.5 cm thick) covered the array floor, upon which we fitted a black plastic chamber (38 cm H) with a center divider wall containing a square passage hole (5-cm D) raised 2.5 cm from the array floor. The entire LED chamber was maintained in a quiet room with low ambient light (˜5 lux). We first placed mice in the red-light chamber and then allowed them to freely explore the chambers for 15 min. A camera placed above the chamber recorded the location of the mouse in the apparatus. We manually scored the videos to determine the time spent by the mouse in each chamber (automated tracking was not possible given the light from the LED floor). Only one mouse was present in the room during all trials.

For experiment [4], the system named is control mice expressing eYFP in the BLA nociceptive ensemble. Put plainly: Pain behaviors in control mice expressing eYFP in the BLA nociceptive ensemble (no hM4). Type of experiment: in vivo. How it is done:
For chemogenetic activity manipulation of BLA neuronal ensembles, we intracranially injected 100 nL of either AAV5-hSyn-DIO-hM4-mCherry (U. North Carolina Viral Core; titre: 3.98×1012), AAV5-hSyn-DIO-mCherry (U. North Carolina Viral Core; titre: 4.72×1012), AAVDJ-Ef1a-DIO-eYFP (Stanford Viral Core; titre: 2.65×1011) into both the left and right BLA at coordinates AP: −1.20 mm, ML: ±3.1 mm, DV: −4.60 mm.
To evaluate mechanical reflexive sensitivity, we used a logarithmically increasing set of 8 von Frey filaments (Stoelting), ranging in gram force from 0.07- to 6.0-g (93). These filaments were applied perpendicular to the plantar hindpaw with sufficient force to cause a slight bending of the filament. A positive response was characterized as a rapid withdrawal of the paw away from the stimulus within 4 s. Using the Up-Down statistical method, the 50% withdrawal mechanical threshold scores were calculated for each mouse and then averaged across the experimental groups. The response frequency was calculated as the number of positive responses out of 10 stimulations, delivered at 30-s intervals.
To evaluate affective-motivational responses evoked by mechanical stimulation, we used three von Frey filaments (0.07-g, 0.4-g, and 2.0-g) and a sharp 25G syringe needle (pin prick) (94). […]
as §1

Where [5] appears, read: CNO 10 mg/kg, AAVDJ-Ef1α-DIO-eYFP control mice.

Take `C[N+]1([O-])CCN(C2=Nc3cc(Cl)ccc3Nc3ccccc32)CC1` [CNO, clozapine-N-oxide]: the affective-motivational behaviors entry in experiment [1] (acetone drop) is given as “Lack of effect”. The reflex behaviors entry in experiment [1] (von Frey filaments) is given as “Lack of effect”. The “mean neural response to various stimuli” value in experiment [2] is reported as “did not alter”. In addition, the “aversion to the noxious blue light chamber” value in experiment [3] is “eliminated the aversion”. For the same compound, in experiment [4] (setting [5]), the affective-motivational behaviors entry is “Lack of effect” and the reflexive behaviors entry is reported as “Lack of effect”. Besides, the pain behaviors result in experiment [4] (CNO alone, control mice) is given as “had no effect”.
